Test results reported in ChEMBL document CHEMBL4418278, “Serine racemase inhibitor” (2014).

Biological target: T1, Serine racemase (Homo sapiens) (UniProt Q9GZT4)
T1 sequence (whole entry): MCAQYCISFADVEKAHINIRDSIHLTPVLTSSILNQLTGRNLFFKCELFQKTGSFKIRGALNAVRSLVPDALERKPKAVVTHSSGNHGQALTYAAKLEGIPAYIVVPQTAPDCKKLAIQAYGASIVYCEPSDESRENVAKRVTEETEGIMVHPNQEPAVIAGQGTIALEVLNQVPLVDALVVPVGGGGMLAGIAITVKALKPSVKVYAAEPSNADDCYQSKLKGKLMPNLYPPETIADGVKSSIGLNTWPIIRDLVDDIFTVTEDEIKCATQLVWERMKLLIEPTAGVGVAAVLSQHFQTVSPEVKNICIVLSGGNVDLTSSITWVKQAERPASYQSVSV
Test: Inhibition of recombinant human SRR expressed in Escherichia coli assessed as reduction in conversion of L-serine to D-serine at 1 mM incubated for => 8 hrs in presence of PLP and recombinant D-serine dehydratase 1 by spectrophotometry relative to control

inhibition [%] | Structure (SMILES)
62 | Cc1ccc(S(=O)(=O)NCCNC(=O)NS(=O)(=O)c2ccccc2C)cc1
45 | Cc1cccc(CC(=O)NNC(=S)NC(=O)Cc2ccccc2)c1
31 | COc1cccc(OC)c1/C=C/C(=O)NC(=S)NNC(=O)c1cccs1
33 | O=C(/C=C/c1c(F)cc(F)cc1F)NC(=S)NNC(=O)Cc1ccccc1
52 | Cc1ccc(S(=O)(=O)NCCNC(=O)Nc2ccc(Cl)c(Cl)c2)cc1
24 | Cc1ccc(/C=C/C(=O)NC(=S)NNC(=O)Cc2cccs2)cc1
31 | O=C(/C=C/c1cc(Br)cc(Br)c1)NC(=S)NNC(=O)c1ccccc1
55 | COc1ccc(S(=O)(=O)NCCCNC(=O)Nc2ccc(Cl)c(Cl)c2)cc1
35 | O=C(/C=C/c1ccc([N+](=O)[O-])cc1)NC(=S)NNC(=O)Cc1cccs1
64 | COc1cccc(NC(=O)NCCNS(=O)(=O)c2ccc(C)cc2)c1
49 | O=C(NCCNS(=O)(=O)c1ccc(Br)cc1)Nc1ccc(Cl)c(Cl)c1
44 | O=C(/C=C/c1ccc(C(F)(F)F)cc1)NC(=S)NNC(=O)Cc1cccs1
55 | O=C(/C=C/c1ccc(-c2ccccc2)cc1)NC(=S)NNC(=O)Cc1cccs1
53 | O=C(COc1ccc(Br)cc1)NCC(=O)NC1CCCCC1
46 | O=C(/C=C/c1ccc(F)cc1)NC(=S)NNC(=O)c1cccs1
45 | O=C(/C=C/c1ccc(F)cc1)NC(=S)NNC(=O)Cc1ccccc1
49 | O=C(/C=C/c1cc(Br)cc(Br)c1)NC(=S)NNC(=O)Cc1ccc(F)cc1
31 | O=C(/C=C/c1cc(Br)cc(Br)c1)NC(=S)NNC(=O)CCc1ccccc1
0 | O=C(Cc1ccc(F)cc1)NNC(=S)NC(=O)Cc1ccccc1
52 | O=C(/C=C/c1cc(Br)cc(Br)c1)NC(=S)NNC(=O)c1cccs1
59 | Cc1ccc(S(=O)(=O)NCCNC(=O)Nc2ccc(Cl)cc2Cl)cc1
62 | COc1ccc(NC(=O)CNC(=O)COc2ccccc2)c(C)c1
76 | Cc1ccc(S(=O)(=O)NCCNC(=O)Nc2ccc(F)cc2)cc1
61 | O=C(Cc1cccs1)NNC(=S)NC(=O)Cc1ccccc1

inhibition [%] | Structure (SMILES)
31 | COc1cccc(CC(=O)NNC(=S)NC(=O)/C=C/c2cc(Br)cc(Br)c2)c1
61 | COc1ccc(S(=O)(=O)NCCNC(=O)Nc2ccc(Cl)c(Cl)c2)cc1
70 | O=C(CCc1ccccc1)NNC(=S)NC(=O)Cc1ccccc1
28 | O=C(/C=C/c1cc(Br)cc(Br)c1)NC(=S)NNC(=O)Cc1cccs1
20 | O=C(/C=C/c1cc(Br)cc(Br)c1)NC(=S)NNC(=O)Cc1ccccc1
86 | COCCCNC(=S)NCCNS(=O)(=O)c1ccc(C)cc1
55 | O=C(NCCCNS(=O)(=O)c1ccc(Br)cc1)Nc1ccc(Cl)c(Cl)c1
24 | Cc1cccc(CC(=O)NNC(=S)NC(=O)/C=C/c2cc(Br)cc(Br)c2)c1
33 | O=C(/C=C/c1c(Cl)cc(Cl)cc1Cl)NC(=S)NNC(=O)Cc1cccs1
54 to 85 | O=C(O)CC(=O)O
57 | Cc1ccc(S(=O)(=O)NCCNC(=O)Nc2ccc(Br)cc2Cl)cc1
76 | COc1ccccc1NC(=S)NCCNS(=O)(=O)c1ccc(C)cc1
41 | O=C(Cc1ccccc1)NNC(=S)NC(=O)Cc1ccccc1
69 | Cc1ccc(S(=O)(=O)NCCNC(=S)Nc2ccccc2Cl)cc1
54 | Cc1ccc(S(=O)(=O)Nc2ccccc2NC(=O)Nc2ccc(F)cc2)cc1
49 | Cc1ccc(S(=O)(=O)Nc2ccccc2NC(=O)Nc2ccc(Cl)c(Cl)c2)cc1
24 | COc1cccc(OC)c1/C=C/C(=O)NC(=S)NNC(=O)Cc1ccccc1
23 | O=C(/C=C/c1ccc(Cl)cc1)NC(=S)NNC(=O)Cc1cccs1
27 | COc1ccc(/C=C/C(=O)NC(=S)NNC(=O)Cc2cccs2)c(OC)c1
74 | O=C(Cc1c(F)cccc1F)NNC(=S)NC(=O)Cc1ccccc1
58 | Cc1ccc(S(=O)(=O)NCCNC(=S)Nc2ccccc2C)cc1
67 | O=C(Cc1cc(F)cc(F)c1)NNC(=S)NC(=O)Cc1ccccc1
63 | COc1ccc(C)cc1NC(=S)NCCNS(=O)(=O)c1ccc(C)cc1
79 | Cc1ccc(S(=O)(=O)NCCNC(=O)Nc2ccccc2)cc1

Biological target: T1, Serine racemase (Homo sapiens)
Test: Inhibition of recombinant human SRR expressed in Escherichia coli assessed as reduction in conversion of L-serine to D-serine at 0.1 mM incubated for => 8 hrs in presence of PLP and recombinant D-serine dehydratase 1 by spectrophotometry relative to control

inhibition [%] | Structure (SMILES)
86 | Cc1ccc(S(=O)(=O)NCC(=O)N[C@@H](C)c2ccccc2)cc1
60 | O=C(CNS(=O)(=O)c1ccc(Cl)cc1)Nc1ccccc1Br
66 | O=C(Cc1ccc(F)cc1)NNC(=S)NC(=O)Cc1c(F)cccc1F
75 | Cc1ccc(S(=O)(=O)NCC(=O)NCc2ccc(Br)cc2)cc1
52 | Cc1ccc(S(=O)(=O)NCC(=O)Nc2cccc(Br)c2)cc1
65 | O=C(CNS(=O)(=O)Cc1ccccc1)OCc1ccccc1
59 | COc1ccc(S(=O)(=O)NCC(=O)Nc2cccc(Br)c2)cc1
99 | O=C(COc1ccc(Br)cc1)NCC(=O)NC1CCCCC1
84 | Cc1ccc(S(=O)(=O)NCC(=O)OCc2ccccc2)cc1
67 | Cc1ccc(S(=O)(=O)NCC(=O)NCc2ccc(Br)cc2F)cc1
63 | O=C(CNS(=O)(=O)Cc1ccccc1)Nc1cccc(Br)c1
85 | C[C@@H](NC(=O)CNS(=O)(=O)Cc1ccccc1)c1ccccc1
56 | Cc1ccc(S(=O)(=O)NCC(=O)Nc2ccc(OCc3ccccc3)cc2)cc1
87 | COc1ccc(NC(=O)CNC(=O)COc2ccccc2)c(C)c1
62 | Cc1ccc(S(=O)(=O)NCC(=O)Nc2cccc([N+](=O)[O-])c2)cc1
67 | O=C(Cc1ccc(F)cc1)NNC(=S)NC(=O)Cc1ccc(F)cc1
67 | O=C(Cc1ccc(F)cc1)NNC(=S)NC(=O)CC1CCCCC1
62 to 110 | O=C(O)CC(=O)O
63 | Cc1ccc(/C=C/S(=O)(=O)NCC(=O)Nc2ccc(OCc3ccccc3)cc2)cc1
60 | Cc1ccc(S(=O)(=O)NCC(=O)NNC(=O)Cc2ccc(F)cc2)cc1
77 | O=C(CNS(=O)(=O)Cc1ccccc1)Nc1c(F)cccc1F
